Laboratory results reported in US20240228504A1, “SUBSTITUTED TRICYCLIC AMIDES, ANALOGUES THEREOF, AND METHODS USING SAME” (Arbutus Biopharma Corporation, priority 2020, published 2024).
Like-named read-outs stand apart in the source and are kept apart here.

Test system: HBV rcDNA in HepDE19 cells
Test: HepDE19 assay with bDNA quantitation of HBV rcDNA
Format: cell-based, hepatitis B virus
Details: inhibition of rcDNA formation, bDNA quantitation, read-out: DE-19bDNA EC50
[1] = Hepatitis B virus, HepDE19, HepDE19 assay

CN(C(=O)c1cc2cc(C#N)ccc2[nH]1)C1COCc2[nH]c(=O)c3cc(F)ccc3c21 (single isomer, unassigned) [Compound 397, 5-Cyano-N-(8-fluoro-6-oxo-1,4,5,6-tetrahydro-2H-pyrano[3,4-c]isoquinolin-1-yl)-N-methyl-1H-indole-2-carboxamide]
EC50 (HepDE19 assay): 17000 nM

CN(C(=O)c1cc2cc(C#N)ccc2[nH]1)C1COCc2[nH]c(=O)c3cc(F)ccc3c21 (single isomer, unassigned) [Compound 398, 5-Cyano-N-(8-fluoro-6-oxo-1,4,5,6-tetrahydro-2H-pyrano[3,4-c]isoquinolin-1-yl)-N-methyl-1H-indole-2-carboxamide]
EC50 (HepDE19 assay): 270 nM

CN(C(=O)c1cc2c(C#N)cc(F)cc2[nH]1)C1CNCc2[nH]c(=O)c3cc(F)c(F)cc3c21 (single isomer, unassigned) [Compound 399, 4-Cyano-N-(8,9-difluoro-6-oxo-1,2,3,4,5,6-hexahydrobenzo[c][1,7]naphthyridin-1-yl)-6-fluoro-N-methyl-1H-indole-2-carboxamide]
EC50 (HepDE19 assay): 3800 nM

CN(C(=O)c1cc2c(C#N)cc(F)cc2[nH]1)C1CNCc2[nH]c(=O)c3cc(F)c(F)cc3c21 (single isomer, unassigned) [Compound 400, 4-Cyano-N-(8,9-difluoro-6-oxo-1,2,3,4,5,6-hexahydrobenzo[c][1,7]naphthyridin-1-yl)-6-fluoro-N-methyl-1H-indole-2-carboxamide]
EC50 (HepDE19 assay): 90 nM

CCc1cc(F)cc2[nH]c(C(=O)N(C)C3CNCc4[nH]c(=O)c5cc(F)c(F)cc5c43)cc12 (single isomer, unassigned) [Compound 401, N-(8,9-Difluoro-6-oxo-1,2,3,4,5,6-hexahydrobenzo[c][1,7]naphthyridin-1-yl)-4-ethyl-6-fluoro-N-methyl-1H-indole-2-carboxamide]
EC50 (HepDE19 assay): 2500 nM

CCc1cc(F)cc2[nH]c(C(=O)N(C)C3CNCc4[nH]c(=O)c5cc(F)c(F)cc5c43)cc12 (single isomer, unassigned) [Compound 402, N-(8,9-Difluoro-6-oxo-1,2,3,4,5,6-hexahydrobenzo[c][1,7]naphthyridin-1-yl)-4-ethyl-6-fluoro-N-methyl-1H-indole-2-carboxamide]
EC50 (HepDE19 assay): 20 nM

CN(C(=O)c1cc2cc(S(C)(=O)=O)ccc2[nH]1)C1CNCc2[nH]c(=O)c3cc(F)c(F)cc3c21 (single isomer, unassigned) [Compound 403, N-(8,9-Difluoro-6-oxo-1,2,3,4,5,6-hexahydrobenzo[c][1,7]naphthyridin-1-yl)-N-methyl-5-(methylsulfonyl)-1H-indole-2-carboxamide]
EC50 [1]: 25000 nM

CN(C(=O)c1cc2cc(C#N)ccc2[nH]1)C1CNCc2[nH]c(=O)c3cc(F)c(F)cc3c21 (single isomer, unassigned) [Compound 406, 5-Cyano-N-(8,9-difluoro-6-oxo-1,2,3,4,5,6-hexahydrobenzo[c][1,7]naphthyridin-1-yl)-N-methyl-1H-indole-2-carboxamide]
EC50 [1]: 190 nM

CN(C(=O)c1cnc(C(F)(F)F)c(F)c1)C1COCc2[nH]c(=O)c3cc(F)ccc3c21 (single isomer, unassigned) [Compound 414, 5-Fluoro-N-(8-fluoro-6-oxo-1,4,5,6-tetrahydro-2H-pyrano[3,4-c]isoquinolin-1-yl)-N-methyl-6-(trifluoromethyl)nicotinamide]
EC50 (HepDE19 assay): 170 nM

CN(C(=O)c1cnc(C(F)(F)F)c(Cl)c1)C1CNCc2[nH]c(=O)c3cc(F)c(F)cc3c21 (single isomer, unassigned) [Compound 419, 5-Chloro-N-(8,9-difluoro-6-oxo-1,2,3,4,5,6-hexahydrobenzo[c][1,7]naphthyridin-1-yl)-N-methyl-6-(trifluoromethyl)nicotinamide]
EC50 [1]: 140 nM

CN(C(=O)c1cc2sccc2[nH]1)C1CNCc2[nH]c(=O)c3cc(F)c(F)cc3c21 (single isomer, unassigned) [Compound 420, N-(8,9-Difluoro-6-oxo-1,2,3,4,5,6-hexahydrobenzo[c][1,7]naphthyridin-1-yl)-N-methyl-4H-thieno[3,2-b]pyrrole-5-carboxamide]
EC50 (HepDE19 assay): 660 nM

CN(C(=O)c1cc2sccc2[nH]1)C1CNCc2[nH]c(=O)c3cc(F)c(F)cc3c21 (single isomer, unassigned) [Compound 421, N-(8,9-Difluoro-6-oxo-1,2,3,4,5,6-hexahydrobenzo[c][1,7]naphthyridin-1-yl)-N-methyl-4H-thieno[3,2-b]pyrrole-5-carboxamide]
EC50 (HepDE19 assay): 40 nM

Cc1cccc2[nH]c(C(=O)N(C)C3COCc4[nH]c(=O)c5cc(F)ccc5c43)cc12 (single isomer, unassigned) [Compound 422, N-(8-Fluoro-6-oxo-1,4,5,6-tetrahydro-2H-pyrano[3,4-c]isoquinolin-1-yl)-N,4-dimethyl-1H-indole-2-carboxamide]
EC50 (HepDE19 assay): 1200 nM

Cc1cccc2[nH]c(C(=O)N(C)C3COCc4[nH]c(=O)c5cc(F)ccc5c43)cc12 (single isomer, unassigned) [Compound 423, N-(8-Fluoro-6-oxo-1,4,5,6-tetrahydro-2H-pyrano[3,4-c]isoquinolin-1-yl)-N,4-dimethyl-1H-indole-2-carboxamide]
EC50 (HepDE19 assay): 10 nM

CN(C(=O)c1cc2c(Cl)cccc2[nH]1)C1COCc2[nH]c(=O)c3cc(F)ccc3c21 (single isomer, unassigned) [Compound 424, 4-Chloro-N-(8-fluoro-6-oxo-1,4,5,6-tetrahydro-2H-pyrano[3,4-c]isoquinolin-1-yl)-N-methyl-1H-indole-2-carboxamide]
EC50 (HepDE19 assay): 510 nM

CN(C(=O)c1cc2c(Cl)cccc2[nH]1)C1COCc2[nH]c(=O)c3cc(F)ccc3c21 (single isomer, unassigned) [Compound 425, 4-Chloro-N-(8-fluoro-6-oxo-1,4,5,6-tetrahydro-2H-pyrano[3,4-c]isoquinolin-1-yl)-N-methyl-1H-indole-2-carboxamide]
EC50 (HepDE19 assay): 20 nM

CN(C(=O)c1cc2c(C(F)F)cccn2c1)C1CNCc2[nH]c(=O)c3cc(F)c(F)cc3c21 (single isomer, unassigned) [Compound 430, N-(8,9-Difluoro-6-oxo-1,2,3,4,5,6-hexahydrobenzo[c][1,7]naphthyridin-1-yl)-8-(difluoromethyl)-N-methylindolizine-2-carboxamide]
EC50 (HepDE19 assay): 6300 nM

CN(C(=O)c1cc2c(C(F)F)cccn2c1)C1CNCc2[nH]c(=O)c3cc(F)c(F)cc3c21 (single isomer, unassigned) [Compound 431, N-(8,9-Difluoro-6-oxo-1,2,3,4,5,6-hexahydrobenzo[c][1,7]naphthyridin-1-yl)-8-(difluoromethyl)-N-methylindolizine-2-carboxamide]
EC50 (HepDE19 assay): 10 nM

CN(C(=O)c1cc2cccc(C(F)F)n2c1)C1CNCc2[nH]c(=O)c3cc(F)c(F)cc3c21 (single isomer, unassigned) [Compound 432, N-(8,9-Difluoro-6-oxo-1,2,3,4,5,6-hexahydrobenzo[c][1,7]naphthyridin-1-yl)-5-(difluoromethyl)-N-methylindolizine-2-carboxamide]
EC50 (HepDE19 assay): 23000 nM

CN(C(=O)c1cc2cccc(C(F)F)n2c1)C1CNCc2[nH]c(=O)c3cc(F)c(F)cc3c21 (single isomer, unassigned) [Compound 433, N-(8,9-Difluoro-6-oxo-1,2,3,4,5,6-hexahydrobenzo[c][1,7]naphthyridin-1-yl)-5-(difluoromethyl)-N-methylindolizine-2-carboxamide]
EC50 (HepDE19 assay): 50 nM

CN(C(=O)c1cnc(C(F)(F)F)c(F)c1)C1CNCc2[nH]c(=O)c3cc(F)c(F)cc3c21 (single isomer, unassigned) [Compound 435, N-(8,9-Difluoro-6-oxo-1,2,3,4,5,6-hexahydrobenzo[c][1,7]naphthyridin-1-yl)-5-fluoro-N-methyl-6-(trifluoromethyl)nicotinamide]
EC50 [1]: 260 nM

CN(C(=O)c1cc2c(Cl)cc(F)cc2[nH]1)C1COCc2[nH]c(=O)c3cc(F)ccc3c21 (single isomer, unassigned) [Compound 438, 4-Chloro-6-fluoro-N-(8-fluoro-6-oxo-1,4,5,6-tetrahydro-2H-pyrano[3,4-c]isoquinolin-1-yl)-N-methyl-1H-indole-2-carboxamide]
EC50 (HepDE19 assay): 1700 nM

CN(C(=O)c1cc2c(Cl)cc(F)cc2[nH]1)C1COCc2[nH]c(=O)c3cc(F)ccc3c21 (single isomer, unassigned) [Compound 439, 4-Chloro-6-fluoro-N-(8-fluoro-6-oxo-1,4,5,6-tetrahydro-2H-pyrano[3,4-c]isoquinolin-1-yl)-N-methyl-1H-indole-2-carboxamide]
EC50 (HepDE19 assay): 20 nM

CN(C(=O)c1cc2c(Cl)cccc2[nH]1)C1CNCc2[nH]c(=O)c3cc(F)c(F)cc3c21 (single isomer, unassigned) [Compound 440, 4-Chloro-N-(8,9-difluoro-6-oxo-1,2,3,4,5,6-hexahydrobenzo[c][1,7]naphthyridin-1-yl)-N-methyl-1H-indole-2-carboxamide]
EC50 (HepDE19 assay): 2200 nM

CN(C(=O)c1cc2c(Cl)cccc2[nH]1)C1CNCc2[nH]c(=O)c3cc(F)c(F)cc3c21 (single isomer, unassigned) [Compound 441, 4-Chloro-N-(8,9-difluoro-6-oxo-1,2,3,4,5,6-hexahydrobenzo[c][1,7]naphthyridin-1-yl)-N-methyl-1H-indole-2-carboxamide]
EC50 (HepDE19 assay): 20 nM

CN(C(=O)c1ccc2c(c1)CCC2)C1COCc2[nH]c(=O)c3cc(F)ccc3c21 (single isomer, unassigned) [Compound 442, N-(8-Fluoro-6-oxo-1,4,5,6-tetrahydro-2H-pyrano[3,4-c]isoquinolin-1-yl)-N-methyl-2,3-dihydro-1H-indene-5-carboxamide]
EC50 (HepDE19 assay): 19000 nM

CN(C(=O)c1ccc2c(c1)CCC2)C1COCc2[nH]c(=O)c3cc(F)ccc3c21 (single isomer, unassigned) [Compound 443, N-(8-Fluoro-6-oxo-1,4,5,6-tetrahydro-2H-pyrano[3,4-c]isoquinolin-1-yl)-N-methyl-2,3-dihydro-1H-indene-5-carboxamide]
EC50 (HepDE19 assay): 640 nM
